Assay results reported in patent publication US11753408B2, “Compounds and method for blocking transmission of malarial parasite” (The United States of America, as represented by the …, priority 2016, dated 2023).
pEC50: −log10 of the molar value.

What was measured:
[1] = test system: Stage III-V gametocytes (blood stage P. falciparum parasites); assay: In vitro drug activity on gametocytes (AlamarBlue viability assay); assay type: cell-based, Plasmodium falciparum; settings: read-out: Gametocyte EC50
Summary of the method: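 P. falciparum 3D7 stage III–V gametocytes (also HB3, Dd2), enriched by 50 mM N-acetylglucosamine and Percoll gradient, seeded at 20,000/well with compound for 72 h at 37° C, 5% CO2. AlamarBlue then added for 24 h; viability read as fluorescence (Ex 525, Em 598 nm).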

[2] = Microsomal stability (rat); assay type: in vitro ADME; settings: rat microsomes
[3] = Solubility at pH 7.4; assay type: physicochemical
[4] = PAMPA permeability; assay type: in vitro ADME
[5] = biological target: mTOR (Homo sapiens, UniProt P42345); assay: mTOR activity (no method described); assay type: biochemical
[6] = test system: Asexual parasites of P. falciparum strain 3D7; assay: In vitro drug activity on asexual parasites (SYBR Green assay); assay type: cell-based, Plasmodium falciparum
Summary of the method: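 3D7 parasites at 0.5% parasitemia and 2% hematocrit were exposed to drugs (DMSO ≤0.5%) for 72 h under standard culture conditions, in duplicate. After freeze-thaw lysis, SYBR Green I lysis buffer was added for 30 min at room temperature, and fluorescence was read at 490/520 nm.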

SMILES	pEC50 [1]	Microsomal Stability (rat) T1/2 [2] [min]	Sol @ pH 7.4 [3] [ug/mL]	PAMPA Permeability [4] [×10⁻⁶ cm/s]	mTOR [5] [nM]	pEC50 [6]
O=C(NC1CC1)c1ccc(-n2c(=O)ccc3cnc4ccc(-c5ccc(Cl)cc5)cc4c32)cc1 [Compound 87]	6.86	>30.0	2.6	33.1	241.1	7.61
O=C(NC1CCCCC1)c1ccc(-n2c(=O)ccc3cnc4ccc(-c5ccc(Cl)cc5)cc4c32)cc1 [Compound 155]	5.51	10.7	<1.0	< 1	27970	5.91
O=C(c1ccc(-n2c(=O)ccc3cnc4ccc(-c5ccc(Cl)cc5)cc4c32)cc1)N1CC2CCC(C1)O2 [Compound 138]	6.56	4.8	<1.0	891	1278	6.76
O=C(c1ccc(-n2c(=O)ccc3cnc4ccc(-c5ccc(CN6CCOCC6)cc5)cc4c32)cc1)N1CCOCC1 [Compound 185]	5.94	15.1	3.4	35.5	50000	6.45
CN(C)Cc1ccc(-c2ccc3ncc4ccc(=O)n(-c5ccc(C(=O)N6CC7CN(C)CC7C6)cc5)c4c3c2)cc1 (stereo not shown) [Compound 161]	5.81	>30.0	>82.0	5.4	47050	6.29
CN(C)Cc1ccc(-c2ccc3ncc4ccc(=O)n(-c5ccc(C(=O)N6CCNCC6)cc5)c4c3c2)cc1 [Compound 167]	6.33	>30.0	>76.0	1.5	22690	6.65
CN(C)Cc1ccc(-c2ccc3ncc4ccc(=O)n(-c5ccc(C(=O)N6CCN(C)CC6)cc5)c4c3c2)cc1 [Compound 164]	6.09	>30.0	>79.0	238	40420	6.23
O=C(NC1CC1c1ccccc1)c1ccc(-n2c(=O)ccc3cnc4ccc(-c5ccc(Cl)cc5)cc4c32)cc1 (stereo not shown) [Compound 158]	5.45	18.8	<1.0	< 2.4	7899	5.81
CC(O)c1ccc(-c2ccc3ncc4c(c3c2)n(-c2cccc(C#N)c2)c(=O)n4C)cc1 (stereo not shown) [Compound 443]	7.17	>30.0	3.3	645	302.4	7.35
O=C(c1ccc(-n2c(=O)ccc3cnc4ccc(-c5ccc(F)cc5)cc4c32)cc1)N1CCOCC1 [Compound 107]	7.18	6.9	<1.0	10.1	541.4	7.49
Cc1cc(-c2ccc3ncc4ccc(=O)n(-c5ccc(C(=O)N6CCOCC6)cc5)c4c3c2)ccc1Cl [Compound 144]	5.75	4.1	<1.0	1470	2083	6.43
O=C(c1ccc(-n2c(=O)ccc3cnc4ccc(-c5ccc(Cl)cc5)cc4c32)cc1)N1C2CCC1CC(O)C2 (stereo not shown) [Compound 139]	6.82	4.3	<1.0	238	405.1	7.69
Cn1c(=O)n(-c2cccc(C#N)c2)c2c3cc(-c4cccc(C#N)c4)ccc3ncc21 [Compound 401]	6.72	>30.0	<1.0	297	1271	7.06
CCN(CC)C(=O)c1ccc(-n2c(=O)ccc3cnc4ccc(-c5ccc(Cl)cc5)cc4c32)cc1 [Compound 132]	6.46	<1.0	<1.0	2320	736.2	7.20
O=C(NC1CCC1)c1ccc(-n2c(=O)ccc3cnc4ccc(-c5ccc(Cl)cc5)cc4c32)cc1 [Compound 154]	6.99	8	<1.0	< 1	765.7	6.80
Cn1c(=O)n(-c2cccc(C#N)c2)c2c3cc(-c4cccc(O)c4)ccc3ncc21 [Compound 444]	6.55	12.8	<1.0	407	427.8	6.97

SMILES	pEC50 [1]	Microsomal Stability (rat) T1/2 [2] [min]	Sol @ pH 7.4 [3] [ug/mL]	PAMPA Permeability [4] [×10⁻⁶ cm/s]	mTOR [5] [nM]	pEC50 [6]
CN(C(=O)c1ccc(-n2c(=O)ccc3cnc4ccc(-c5ccc(Cl)cc5)cc4c32)cc1)C1CC1 [Compound 143]	6.62	1.6	<1.0	1420	671.6	7.20
O=C(c1ccc(-n2c(=O)ccc3cnc4ccc(-c5ccc(Cl)cc5)cc4c32)cc1)N1CCCCC1 [Compound 104]	6.71	1.4	<1.0	389	2680	6.67
O=C(c1ccc(-n2c(=O)ccc3cnc4ccc(-c5cccc(O)c5)cc4c32)cc1)N1CCOCC1 [Compound 128]	7.50	12.7	1.5	735	310.6	8.22
O=C(NC1CCCCCC1)c1ccc(-n2c(=O)ccc3cnc4ccc(-c5ccc(Cl)cc5)cc4c32)cc1 [Compound 157]	5.13	6.8	<1.0	< 1	50000	5.47
O=C(c1ccc(-n2c(=O)ccc3cnc4ccc(-c5ccc(Cl)cc5)cc4c32)cc1)N1CCCC1 [Compound 106]	6.90	2.1	<1.0	621	1735	7.19
NC(=O)c1ccc(-n2c(=O)ccc3cnc4ccc(-c5ccc(N)nc5)cc4c32)cc1 [Compound 336]	7.39	>30.0	<1.0	< 3.6	19.71	7.99
CN1CC2CC1CN2C(=O)c1ccc(-n2c(=O)ccc3cnc4ccc(-c5ccc(Cl)cc5)cc4c32)cc1 (stereo not shown) [Compound 140]	6.57	9.6	>77.0	1390	6373	7.23
Cn1c(=O)n(-c2cccc(C#N)c2)c2c3cc(-c4ccc(N)cc4)ccc3ncc21 [Compound 439]	6.07	>30.0	1.4	18.4	714.1	7.42
O=C(O)c1cccc(-c2ccc3ncc4ccc(=O)n(-c5ccc(C(=O)N6CCOCC6)cc5)c4c3c2)c1 [Compound 131]	4.76	>30.0	>75.0	1.9	1557	4.76
CN(C)Cc1ccc(-c2ccc3ncc4ccc(=O)n(-c5ccc(C(=O)N(C)C)cc5)c4c3c2)cc1 [Compound 166]	6.75	>30.0	>70.0	427	8762	7.14
CCc1ccc(-c2ccc3ncc4ccc(=O)n(-c5ccc(C(=O)N6CCOCC6)cc5)c4c3c2)cc1 [Compound 195]	6.56	8.8	<1	148	781.4	
COc1cc(C(=O)N2CCOCC2)ccc1-n1c(=O)ccc2cnc3ccc(-c4ccc(F)cc4)cc3c21 [Compound 194]	6.15	6.9	<1	1080	100000	
O=C(c1ccc(-n2c(=O)ccc3cnc4ccc(-c5ccc(CN6CCC6)cc5)cc4c32)cc1)N1CCOCC1 [Compound 189]	6.45	>30	>78	212	6514	
COc1cc(C(=O)NC2CC2)ccc1-n1c(=O)ccc2cnc3ccc(-c4ccc(F)cc4)cc3c21 [Compound 188]	6.22	21.5	<1	1250	7201	
COc1cc(C(=O)N2CCOCC2)ccc1-n1c(=O)ccc2cnc3ccc(-c4ccc(CN(C)C)cc4)cc3c21 [Compound 193]	6.09	>30	>81	162	8290	
